Ends that are not written are not given here. Peptide text beside a SMILES is read from it. * marks the point of attachment. Biotin = O=C1N[C@H]2[C@H](CS[C@H]2CCCCC(=O)*)N1

Assay [1] has as its target T1, PDZ protein (GST-PDZ fusion) (Homo sapiens, UniProt Q5T2W1).
T1 construct: made in house; host or cells: E. coli (DH5alpha, BL21 or JM109)
T1 sequence (Q5T2W1 1-519): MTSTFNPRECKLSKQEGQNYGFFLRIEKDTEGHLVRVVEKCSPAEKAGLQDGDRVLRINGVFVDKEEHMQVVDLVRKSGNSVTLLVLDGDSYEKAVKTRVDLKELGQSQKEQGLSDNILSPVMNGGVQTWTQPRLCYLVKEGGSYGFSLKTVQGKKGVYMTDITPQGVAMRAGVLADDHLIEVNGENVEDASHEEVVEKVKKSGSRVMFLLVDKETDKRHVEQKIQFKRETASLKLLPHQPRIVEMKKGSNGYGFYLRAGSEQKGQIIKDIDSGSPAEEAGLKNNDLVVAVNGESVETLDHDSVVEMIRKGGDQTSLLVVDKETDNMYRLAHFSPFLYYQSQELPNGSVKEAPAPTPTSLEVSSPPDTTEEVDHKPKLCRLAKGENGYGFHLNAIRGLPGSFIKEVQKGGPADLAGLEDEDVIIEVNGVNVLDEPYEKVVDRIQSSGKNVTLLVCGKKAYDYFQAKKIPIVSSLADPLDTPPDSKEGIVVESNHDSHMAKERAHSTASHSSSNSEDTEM
Put plainly: G' assay (10 uM PL peptide), results of TABLE 7 and TABLE 12. It is filed as binding. The method, boiled down: (§1)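 Biotinylated PL peptides at 10 uM (vs 20 uM in G^0 assay) bound to GST-PDZ fusions; PDZ protein at 5 ug/ml unless another concentration listed. Bound peptide read as A450 nm, classified 0–5 (0 = A450 0; 5 = A450 >4 repeated).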

The target of assay [2] is T2, PDZ protein (GST-PDZ fusion) (Homo sapiens, UniProt Q14CM0).
T2 construct: made in house; host or cells: E. coli (DH5alpha, BL21 or JM109)
T2 sequence (Q14CM0 1-1322): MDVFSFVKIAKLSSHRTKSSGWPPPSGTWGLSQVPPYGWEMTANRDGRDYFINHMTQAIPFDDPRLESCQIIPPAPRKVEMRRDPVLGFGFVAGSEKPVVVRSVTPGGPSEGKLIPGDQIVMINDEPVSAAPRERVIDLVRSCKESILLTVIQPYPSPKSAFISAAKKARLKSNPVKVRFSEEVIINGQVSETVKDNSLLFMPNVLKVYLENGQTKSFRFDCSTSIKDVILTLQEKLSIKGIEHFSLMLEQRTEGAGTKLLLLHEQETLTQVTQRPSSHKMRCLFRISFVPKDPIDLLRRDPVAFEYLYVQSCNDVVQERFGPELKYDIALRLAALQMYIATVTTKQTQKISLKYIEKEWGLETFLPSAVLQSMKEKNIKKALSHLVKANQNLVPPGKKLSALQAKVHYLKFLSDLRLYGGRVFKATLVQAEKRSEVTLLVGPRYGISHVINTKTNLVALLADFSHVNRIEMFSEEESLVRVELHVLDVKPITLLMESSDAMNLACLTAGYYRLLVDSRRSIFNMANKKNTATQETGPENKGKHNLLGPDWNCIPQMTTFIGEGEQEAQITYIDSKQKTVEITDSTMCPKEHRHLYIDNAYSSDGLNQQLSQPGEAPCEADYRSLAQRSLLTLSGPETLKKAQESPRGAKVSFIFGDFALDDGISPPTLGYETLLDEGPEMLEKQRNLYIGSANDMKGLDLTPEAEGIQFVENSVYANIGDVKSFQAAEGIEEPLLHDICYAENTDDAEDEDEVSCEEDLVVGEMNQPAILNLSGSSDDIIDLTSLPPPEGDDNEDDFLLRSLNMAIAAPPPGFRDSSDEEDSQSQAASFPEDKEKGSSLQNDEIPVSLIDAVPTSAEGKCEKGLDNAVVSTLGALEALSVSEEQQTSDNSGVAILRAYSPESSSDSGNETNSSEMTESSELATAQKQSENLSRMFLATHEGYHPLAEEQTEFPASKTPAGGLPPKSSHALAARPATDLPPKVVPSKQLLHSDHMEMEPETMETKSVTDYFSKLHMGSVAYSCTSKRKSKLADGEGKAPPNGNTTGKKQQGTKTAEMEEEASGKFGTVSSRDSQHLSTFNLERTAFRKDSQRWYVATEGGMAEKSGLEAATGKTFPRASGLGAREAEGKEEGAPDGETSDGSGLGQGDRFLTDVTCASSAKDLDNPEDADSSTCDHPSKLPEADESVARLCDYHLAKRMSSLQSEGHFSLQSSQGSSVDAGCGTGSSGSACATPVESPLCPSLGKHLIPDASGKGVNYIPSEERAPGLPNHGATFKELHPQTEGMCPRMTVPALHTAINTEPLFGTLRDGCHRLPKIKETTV
The description is as above. To be noted: PDZ KIAA0316, PDZ Domain 1. It is filed as binding. The method, boiled down:
as §1

Regarding `CC(C)C[C@H](NC(=O)[C@H](CCCNC(=N)N)NC(=O)CNC(=O)CNC(=O)[C@H](CCCNC(=N)N)NC(=O)[C@H](C)NC(=O)[C@@H]1CCCN1C(=O)[C@H](CCCNC(=N)N)NC(=O)CNC(=O)CNC(=O)[C@@H](NC(=O)[C@H](C)NC(=O)CCCC[C@@H]1SC[C@@H]2NC(=O)N[C@@H]21)C(C)C)C(=O)N[C@@H](CCC(N)=O)C(=O)NCC(=O)N[C@@H](CCCNC(=N)N)C(=O)N[C@@H](CCCNC(=N)N)C(=O)N[C@@H](CCC(N)=O)C(=O)N[C@H](C(=O)N[C@@H](CCC(N)=O)C(=O)N[C@H](C(=O)O)C(C)C)[C@@H](C)O` [HPV E6 58 (modified)] (Biotin-AVGGRPARGGRLQGRRQTQV-OH; C-terminus assumed), the Classification in assay [1] (PDZ PDZK1, PDZ Domain 2, 3, 4) is listed as 1 (A450 nm 0-1).
Still for that read-out and setting: with “PPATPSPRLALPAHHNATRL (Biotin-PPATPSPRLALPAHHNATRL) [Na+/Pi cotransporter 2]” the figure was 1 (A450 nm 0-1).
For `CC(C)C[C@H](NC(=O)[C@H](CC(=O)O)NC(=O)[C@H](CO)NC(=O)[C@H](CCC(=O)O)NC(=O)CNC(=O)[C@H](Cc1ccc(O)cc1)NC(=O)[C@H](CC(C)C)NC(=O)[C@H](C)NC(=O)[C@H](CO)NC(=O)[C@H](CO)NC(=O)[C@H](Cc1ccccc1)NC(=O)[C@H](C)NC(=O)[C@H](C)NC(=O)[C@H](Cc1ccc(O)cc1)NC(=O)[C@H](CC(=O)O)NC(=O)[C@H](CC(C)C)NC(=O)[C@H](C)NC(=O)CNC(=O)[C@@H]1CCCN1C(=O)[C@@H](NC(=O)CCCC[C@@H]1SC[C@@H]2NC(=O)N[C@@H]21)C(C)C)C(=O)O` [a-actinin 2] (Biotin-VPGALDYAAFSSALYGESDL-OH; C-terminus assumed), in assay [2], the Classification is 1 (A450 nm 0-1).
For `CC[C@H](C)[C@H](NC(=O)CNC(=O)[C@H](CO)NC(=O)[C@H](Cc1ccccc1)NC(=O)[C@@H](NC(=O)[C@H](CS)NC(=O)CNC(=O)CNC(=O)[C@H](C)NC(=O)[C@@H]1CCCN1C(=O)[C@@H](NC(=O)[C@@H]1CCCN1C(=O)CCCC[C@@H]1SC[C@@H]2NC(=O)N[C@@H]21)[C@@H](C)CC)[C@@H](C)O)C(=O)N[C@@H](Cc1ccccc1)C(=O)N1CCC[C@H]1C(=O)N[C@H](C(=O)N[C@@H](CC(C)C)C(=O)N[C@H](C(=O)N[C@@H](CO)C(=O)N1CCC[C@H]1C(=O)N[C@@H](CC(C)C)C(=O)O)[C@@H](C)O)[C@@H](C)O` [KIA 1481] (Biotin-PIPAGGCTFSGIFPTLTSPL-OH; C-terminus assumed), the Classification in assay [1] (PDZ PDZK1, PDZ Domain 2, 3, 4) was 2 (A450 nm 1-2).
Same read-out and setting: with “ARHRVTSYTSSSVNVSSNL (Biotin-ARHRVTSYTSSSVNVSSNL) [IL-8RB]” the figure was 1 (A450 nm 0-1).
For `CC(C)C[C@H](NC(=O)[C@H](CC(C)C)NC(=O)[C@@H](NC(=O)[C@H](CC(=O)O)NC(=O)CCCC[C@@H]1SC[C@@H]2NC(=O)N[C@@H]21)[C@@H](C)O)C(=O)N[C@@H](CC(C)C)C(=O)N[C@H](C(=O)N[C@@H](CCC(=O)O)C(=O)N[C@@H](CC(N)=O)C(=O)N[C@@H](CCC(=O)O)C(=O)NCC(=O)N[C@@H](CC(=O)O)C(=O)N[C@@H](CCCCN)C(=O)N[C@H](C(=O)N[C@@H](CCC(=O)O)C(=O)N[C@@H](CCC(=O)O)C(=O)N[C@@H](CCC(N)=O)C(=O)N[C@H](C(=O)N[C@@H](CO)C(=O)N[C@@H](Cc1ccc(O)cc1)C(=O)N[C@H](C(=O)O)C(C)C)C(C)C)[C@@H](C)O)[C@@H](C)O` [5H2B_HUMAN] (Biotin-DTLLLTENEGDKTEEQVSYV-OH; C-terminus assumed), the Classification in assay [2] was 1 (A450 nm 0-1).
Take `CC(C)C[C@H](NC(=O)[C@H](C)NC(=O)[C@@H](NC(=O)[C@H](CCC(=O)O)NC(=O)[C@H](CCCNC(=N)N)NC(=O)[C@H](CCCNC(=N)N)NC(=O)CNC(=O)[C@H](CCC(N)=O)NC(=O)[C@H](CC(C)C)NC(=O)[C@H](CCCNC(=N)N)NC(=O)CNC(=O)CNC(=O)[C@H](CCCNC(=N)N)NC(=O)[C@H](C)NC(=O)[C@H](CO)NC(=O)[C@H](CCCNC(=N)N)NC(=O)CNC(=O)CNC(=O)[C@H](C)NC(=O)[C@H](C)NC(=O)CCCC[C@@H]1SC[C@@H]2NC(=O)N[C@@H]21)[C@@H](C)O)C(=O)O` [HPV E6 33 (modified)] (Biotin-AAGGRSARGGRLQGRRETAL-OH; C-terminus assumed): the Classification is 2 (A450 nm 1-2) in assay [2] and 1 (A450 nm 0-1) in assay [1] (PDZ PDZK1, PDZ Domain 2, 3, 4).
In the same order, the values of `CC[C@H](C)[C@H](NC(=O)[C@H](CO)NC(=O)[C@H](CCC(=O)O)NC(=O)[C@H](Cc1ccc(O)cc1)NC(=O)[C@H](CC(=O)O)NC(=O)[C@H](CC(N)=O)NC(=O)[C@H](CCC(=O)O)NC(=O)[C@H](CCCCN)NC(=O)CCCC[C@@H]1SC[C@@H]2NC(=O)N[C@@H]21)C(=O)N[C@@H](CO)C(=O)N[C@@H](CC(=O)O)C(=O)N[C@@H](CC(C)C)C(=O)N[C@@H](CCC(N)=O)C(=O)N[C@@H](CCC(N)=O)C(=O)NCC(=O)N[C@@H](CCCNC(=N)N)C(=O)N[C@@H](CC(=O)O)C(=O)N[C@H](C(=O)N[C@H](C(=O)N[C@@H](CCCNC(=N)N)C(=O)N[C@@H](CC(C)C)C(=O)O)[C@@H](C)O)[C@@H](C)CC` [PAG] (Biotin-KENDYESISDLQQGRDITRL-OH; C-terminus assumed) are 1 (A450 nm 0-1) and 1 (A450 nm 0-1).
In the same order, the values of `CC(C)C[C@H](NC(=O)[C@H](C)NC(=O)[C@@H](NC(=O)[C@@H](NC(=O)[C@H](Cc1c[nH]cn1)NC(=O)[C@H](CC(C)C)NC(=O)CNC(=O)[C@H](CCC(N)=O)NC(=O)CNC(=O)CNC(=O)[C@H](C)NC(=O)[C@H](C)NC(=O)[C@H](CCCNC(=N)N)NC(=O)[C@H](C)NC(=O)[C@H](CO)NC(=O)[C@H](CC(=O)O)NC(=O)[C@H](CC(=O)O)NC(=O)[C@H](Cc1c[nH]c2ccccc12)NC(=O)[C@H](C)NC(=O)CCCC[C@@H]1SC[C@@H]2NC(=O)N[C@@H]21)C(C)C)[C@@H](C)O)C(=O)O` [LPAP] (Biotin-AWDDSARAAGGQGLHVTAL-OH; C-terminus assumed) are 1 (A450 nm 0-1) and 3 (A450 nm 2-3).
For the compound “KTMPAAMFRLLTGQETPLYI (Biotin-KTMPAAMFRLLTGQETPLYI) [MINT-2]”, the Classification in assay [1] (PDZ PDZK-1, PDZ Domain 4) is 1 (A450 nm 0-1).
Same read-out and setting: with `CC[C@H](C)[C@H](NC(=O)[C@H](Cc1ccc(O)cc1)NC(=O)[C@@H](NC(=O)[C@@H]1CCCN1C(=O)[C@H](CCC(N)=O)NC(=O)[C@H](CCC(=O)O)NC(=O)[C@H](CCC(N)=O)NC(=O)[C@H](C)NC(=O)[C@@H](NC(=O)[C@H](CC(C)C)NC(=O)[C@H](CC(C)C)NC(=O)[C@H](CCCNC(=N)N)NC(=O)[C@H](Cc1ccc(O)cc1)NC(=O)[C@H](CCSC)NC(=O)[C@H](C)NC(=O)[C@H](C)NC(=O)[C@@H]1CCCN1C(=O)[C@H](CCSC)NC(=O)[C@@H](NC(=O)[C@H](CCCCN)NC(=O)CCCC[C@@H]1SC[C@@H]2NC(=O)N[C@@H]21)[C@@H](C)O)[C@@H](C)O)C(C)C)C(=O)O` [MINT-1] (Biotin-KTMPAAMYRLLTAQEQPVYI-OH; C-terminus assumed) the figure was 1 (A450 nm 0-1).
Regarding “KTMPAATYRLLTGQEQPVYL (Biotin-KTMPAATYRLLTGQEQPVYL) [MINT-3]”, the Classification in assay [2] is on record as 2 (A450 nm 1-2).

(Values after patent US20050282743A1, “Molecular interactions in cells” (Arbor Vita Corporation, priority 2001, published 2005).)
